≈ marks a conversion by molar mass, not a printed value. Counter-ions that a name gives are not always drawn.
Assays:
[1] = Cytotoxicity against human MT4 cells after 5 days by MTT assay; type: cell-based
[2] = n-Octanol/water partition coefficient, log P of the compound after 2 hrs by HPLC method; type: physicochemical
[3] = test system: Human immunodeficiency virus 2; assay: Antiviral activity against HIV-2 ROD infected in human MT4 cells assessed as protection against virus-induced cytopathic effect measured at 5 days post infection by MTT assay; type: functional, cell-based; conditions: Human immunodeficiency virus 2, ISOLATE ROD, MT4, 120 h
[4] = test system: Human immunodeficiency virus 1; assay: Fold resistance, ratio of EC50 for HIV1 harboring K103N mutant infected in human MT4 cells to EC50 for wild-type HIV1 3B infected in human MT4 cells; type: functional
[5] = test system: Human immunodeficiency virus 1; assay: Antiviral activity against HIV1 harboring Y181C mutant infected in human MT4 cells assessed as protection against virus-induced cytopathic effect measured at 5 days post infection by MTT assay; type: functional, cell-based; conditions: Human immunodeficiency virus 1, MT4, 120 h
[6] = test system: Human immunodeficiency virus 1; assay: Antiviral activity against HIV1 harboring F227L/V106A double mutant infected in human MT4 cells assessed as protection against virus-induced cytopathic effect measured at 5 days post infection by MTT assay; type: functional, cell-based; conditions: Human immunodeficiency virus 1, MT4, 120 h
[7] = test system: Human immunodeficiency virus 1; assay: Antiviral activity against HIV1 harboring E138K mutant infected in human MT4 cells assessed as protection against virus-induced cytopathic effect measured at 5 days post infection by MTT assay; type: functional, cell-based; conditions: Human immunodeficiency virus 1, MT4, 120 h
[8] = test system: Human immunodeficiency virus 1; assay: Fold resistance, ratio of EC50 for HIV1 harboring L100I mutant infected in human MT4 cells to EC50 for wild-type HIV1 3B infected in human MT4 cells; type: functional
[9] = test system: Human immunodeficiency virus 1; assay: Fold resistance, ratio of EC50 for HIV1 harboring Y188L mutant infected in human MT4 cells to EC50 for wild-type HIV1 3B infected in human MT4 cells; type: functional
[10] = test system: Human immunodeficiency virus 1; assay: Antiviral activity against HIV1 harboring K103N mutant infected in human MT4 cells assessed as protection against virus-induced cytopathic effect measured at 5 days post infection by MTT assay; type: functional, cell-based; conditions: Human immunodeficiency virus 1, MT4, 120 h
[11] = Solubility of the compound in phosphate buffer at pH 7.4 after 2 hrs by UV-HPLC method; type: physicochemical
[12] = test system: Human immunodeficiency virus 1; assay: Antiviral activity against wild-type HIV1 3B infected in human MT4 cells assessed as protection against virus-induced cytopathic effect measured at 5 days post infection by MTT assay; type: functional, cell-based; conditions: Human immunodeficiency virus 1, 3B, MT4, 120 h
[13] = Solubility of the compound in phosphate buffer at pH 2 after 2 hrs by UV-HPLC method; type: physicochemical
[14] = test system: Human immunodeficiency virus 1; assay: Antiviral activity against HIV1 RES056 harboring K103N/Y181C double mutant infected in human MT4 cells assessed as protection against virus-induced cytopathic effect measured at 5 days post infection by MTT assay; type: functional, cell-based; conditions: Human immunodeficiency virus 1, RES056, MT4, 120 h
[15] = Selectivity index, ratio of CC50 for human MT4 cells to EC50 for wild-type HIV1 3B infected in human MT4 cells; type: toxicity, cell-based; conditions: read-out: Ratio CC50/EC50
[16] = test system: Human immunodeficiency virus 1; assay: Fold resistance, ratio of EC50 for HIV1 harboring Y181C mutant infected in human MT4 cells to EC50 for wild-type HIV1 3B infected in human MT4 cells; type: functional
[17] = test system: Human immunodeficiency virus 1; assay: Antiviral activity against HIV1 harboring L100I mutant infected in human MT4 cells assessed as protection against virus-induced cytopathic effect measured at 5 days post infection by MTT assay; type: functional, cell-based; conditions: Human immunodeficiency virus 1, MT4, 120 h
[18] = test system: Human immunodeficiency virus 1; assay: Fold resistance, ratio of EC50 for HIV1 harboring E138K mutant infected in human MT4 cells to EC50 for wild-type HIV1 3B infected in human MT4 cells; type: functional
[19] = test system: Human immunodeficiency virus 1; assay: Antiviral activity against HIV1 harboring Y188L mutant infected in human MT4 cells assessed as protection against virus-induced cytopathic effect measured at 5 days post infection by MTT assay; type: functional, cell-based; conditions: Human immunodeficiency virus 1, MT4, 120 h
[20] = Solubility of the compound in water at pH 7.4; type: physicochemical
[21] = Inhibition of wild-type HIV1 reverse transcriptase assessed as decrease in biotin-dUTP incorporation using poly(A)/oligo(dT)15 as template/primer after 1 hr by ELISA; design: species or system Human immunodeficiency virus 1
[22] = Solubility of the compound in 0.1 N HCl at pH 2; type: physicochemical
[23] = Lipophilicity, log P of the compound; type: physicochemical; conditions: octanol/water
[24] = test system: Human immunodeficiency virus 1; assay: Antiviral activity against HIV1 NL4-3; type: functional; conditions: Human immunodeficiency virus 1, NL4-3

SMILES	CC50 at 120 h [1]	EC50 [3]	EC50 [12]	EC50 [14]	selectivity ratio [15]	further results
Cc1cc(/C=C/C#N)cc(C)c1Oc1cc(N)nc(NCCn2ccc(=O)[nH]c2=O)n1	> 298 µM	> 298 µM	0.17 µM	> 298 µM	> 1740	logP at 2 h [2]: 1.21; Ratio EC50 [4]: 3; EC50 [5]: 4.82 µM; EC50 [6]: > 298 µM; EC50 [7]: 0.83 µM; Ratio EC50 [8]: 129; Ratio EC50 [9]: >1753; EC50 [10]: 0.53 µM; solubility at 2 h [11]: 0.43 µg/mL (≈ 1.03 µM); solubility at 2 h [13]: 91.7 µg/mL (≈ 219 µM); Ratio EC50 [16]: 28; EC50 [17]: 21.9 µM; Ratio EC50 [18]: 5; EC50 [19]: > 298 µM
Cc1cc(C)cc(Oc2nc(NCCn3ccc(=O)[nH]c3=O)ncc2Cl)c1	> 322 µM	> 322 µM	0.88 µM	> 322 µM	> 367	
Cc1cc(C)c(Oc2nc(NCCn3ccc(=O)[nH]c3=O)ncc2Cl)c(C)c1	2.49 µM	> 2.49 µM	0.0078 µM	> 2.49 µM	317	
Cc1cc(C#N)cc(C)c1Oc1nc(Nc2ccc(C#N)cc2)nc(N)c1Br [ETRAVIRINE]				0.0034 µM		solubility [20]: < 1 µg/mL; IC50 [21]: 1 µM; solubility [22]: < 1 µg/mL; logP [23]: > 5; EC50 [17]: 0.0066 µM
Cc1cc(C)c(Oc2nc(Cl)ncc2NCCn2ccc(=O)[nH]c2=O)c(C)c1	2.89 µM	> 2.89 µM	> 2.89 µM	> 2.89 µM	< 1	
Cc1cc(C#N)cc(C)c1Oc1cc(Cl)nc(NCCn2ccc(=O)[nH]c2=O)n1	20.6 µM	> 20.6 µM	7.73 µM	> 20.6 µM	3	
Cc1cc(C)cc(Oc2ccnc(NCCn3ccc(=O)[nH]c3=O)n2)c1	74.8 µM	> 74.8 µM	48.8 µM	> 74.8 µM	2	
Cc1cc(C#N)cc(C)c1Oc1nc(NCCn2ccc(=O)[nH]c2=O)ncc1Cl	> 11.7 µM	> 11.7 µM	0.046 µM	> 11.7 µM	≥ 255	
Cc1ccnc2c1NC(=O)c1cccnc1N2C1CC1 [NEVIRAPINE]	> 15 µM			0.26 µM		EC50 [5]: 6.22 µM; IC50 [21]: 1.39 µM; EC50 [17]: 0.83 µM; EC50 [19]: 9.61 µM
Cc1cc(C)c(Oc2cc(Cl)nc(NCCn3ccc(=O)[nH]c3=O)n2)c(C)c1	44.1 µM	> 44.1 µM	0.52 µM	> 44.1 µM	85	
Cc1cc(C#N)cc(C)c1Oc1cc(N)nc(NCCn2ccc(=O)[nH]c2=O)n1	204 µM	> 204 µM	18.9 µM	> 204 µM	11	
Cc1cn([C@H]2C[C@H](N=[N+]=[N-])[C@@H](CO)O2)c(=O)[nH]c1=O [ZIDOVUDINE]	> 7.48 µM			0.0071 µM	> 1050	EC50 [5]: 0.0071 µM; EC50 [6]: 0.005 µM; EC50 [7]: 0.013 µM; EC50 [10]: 0.0083 µM; EC50 [19]: 0.011 µM
Cc1cc(C)cc(Oc2cc(Cl)nc(NCCn3ccc(=O)[nH]c3=O)n2)c1	> 56.5 µM	> 56.5 µM	> 56.5 µM		> 1	
Cc1cc(C#N)cc(C)c1Oc1ccnc(NCCn2ccc(=O)[nH]c2=O)n1	35.8 µM	> 35.8 µM	6.66 µM	> 35.8 µM	5	logP at 2 h [2]: -0.11; solubility at 2 h [11]: 62.9 µg/mL (≈ 166 µM); solubility at 2 h [13]: > 100 µg/mL
Cc1cc(C)c(Nc2nc(NCCn3ccc(=O)[nH]c3=O)ncc2N)c(C)c1	> 199 µM	> 299 µM	14.9 µM	> 299 µM	> 20	
CC(C)Nc1cccnc1N1CCN(C(=O)c2cc3cc(NS(C)(=O)=O)ccc3[nH]2)CC1 [DELAVIRDINE MESYLATE]	30.4 µM			0.032 µM		EC50 [5]: 2.04 µM; EC50 [7]: 0.043 µM; EC50 [17]: 2.1 µM; EC50 [19]: 0.69 µM
Cc1cc(/C=C/C#N)cc(C)c1Oc1cc(Cl)nc(NCCn2ccc(=O)[nH]c2=O)n1	> 285 µM	> 285 µM	0.12 µM	> 285 µM	> 2270	
Cc1cc(C)c(Oc2cc(NCCn3ccc(=O)[nH]c3=O)nc(Cl)n2)c(C)c1	76.4 µM	> 76.4 µM	> 42.3 µM		≤ 2	
Cc1cc(C)cc(Oc2cc(NCCn3ccc(=O)[nH]c3=O)nc(Cl)n2)c1	99.5 µM	> 99.5 µM	> 99.5 µM		< 1	
Cc1cc(C)c(Nc2nc(NCCn3ccc(=O)[nH]c3=O)ncc2[N+](=O)[O-])c(C)c1	≥ 3.33 µM	> 3.33 µM	0.083 µM	> 3.33 µM	≥ 40	
Cc1cc(C#N)cc(C)c1Oc1nc(NCCn2ccc(=O)[nH]c2=O)nc(N)c1Br	> 265 µM	> 265 µM	0.034 µM	> 265 µM	> 7680	
Cc1cc(C#N)cc(C)c1Oc1cc(NCCn2ccc(=O)[nH]c2=O)nc(Cl)n1	27.9 µM	> 27.9 µM	9.38 µM	> 27.9 µM	3	
Cc1cc(/C=C/C#N)cc(C)c1Oc1nc(NCCn2ccc(=O)[nH]c2=O)ncc1Cl	> 285 µM	> 285 µM	0.0056 µM	23.3 µM	> 50500	Ratio EC50 [4]: 15; EC50 [5]: 0.15 µM; EC50 [6]: ≥ 96.6 µM; EC50 [7]: 0.034 µM; Ratio EC50 [8]: 77; IC50 [21]: 1.58 µM; Ratio EC50 [9]: 9277; EC50 [10]: 0.086 µM; solubility at 2 h [11]: < 0.1 µg/mL; Ratio EC50 [16]: 27; EC50 [17]: 0.43 µM; Ratio EC50 [18]: 6; EC50 [19]: 52 µM
Cc1cc(/C=C/C#N)cc(C)c1Oc1ccnc(NCCn2ccc(=O)[nH]c2=O)n1	> 309 µM	> 309 µM	0.034 µM	> 309 µM	> 9100	solubility at 2 h [11]: < 1 µg/mL
O=C1Nc2ccc(Cl)cc2[C@@](C#CC2CC2)(C(F)(F)F)O1 [EFAVIRENZ]	> 6.34 µM					EC50 [5]: 0.0068 µM; EC50 [6]: 0.21 µM; EC50 [17]: 0.1 µM; EC50 [19]: 0.34 µM
Cc1cc(C)c(Oc2ccnc(NCCn3ccc(=O)[nH]c3=O)n2)c(C)c1	272 µM	> 272 µM	0.53 µM	> 272 µM	515	
Cc1cc(C)c(Oc2cc(N)nc(NCCn3ccc(=O)[nH]c3=O)n2)c(C)c1	119 µM	> 119 µM	2.7 µM	> 119 µM	44	
Cc1cc(C#N)cc(C)c1Oc1nc(Nc2ccc(C#N)cc2)nc2[nH]ccc12						EC50 [24]: 0.00053 µM
Cc1cc(C)cc(Oc2cc(N)nc(NCCn3ccc(=O)[nH]c3=O)n2)c1	127 µM	> 127 µM	> 45.8 µM		< 1	
Cc1cc(C=CC#N)cc(C)c1Oc1cc(NCCn2ccc(=O)[nH]c2=O)nc(Cl)n1	26.2 µM	> 26.2 µM	5.81 µM		5	
